Where two headings read alike, the source gives them in different places.
What was measured:
[1] = system: inguinal fat pads of obese mice; design: Inflammation of injection site: key to the marks not given beside the values; conditions: mouse, in vivo
3T3-L1 adipocytes = assay: Cell lysis effect by detergent in vitro (MTT assay); format: cell-based; conditions: for EC50 (concentration that kills 50% of the cells) / ED50 (% w/v); EC50 values of bile salts required to lysis of adipose cells in vitro: differentiated 3T3-L1 adipocytes; for ED50 (% w/v); EC50 values of bile salts required to lysis of adipose cells in vitro: 1 hour, MTT
Protocol: To induce adipocyte differentiation, 3T3-L1 pre-adipocytes were seeded in 96-well plate (5×10^3 cells/well) and grown until 2 days post-confluence (day 0) and then treated for 2 days with growth media plus MDI (0.5 μM methylisobutylxanthine, 1 μM dexamethasone and 10 ug/ml insulin; all from Sigma-Aldrich Chemical, St. Louis, Mo., USA), followed by 2 days of treatment with the media containing 10 ug/ml insulin alone. Medium was replaced every 2 days for the following 8 days. Differentiated adipocytes in 96 well plate were washed twice with PBS and incubated in various concentrations of bile salts in serum free DMEM. After 1 hour incubation at 37° C., media were changed and 20 μl of MTT solution (5 mg MTT/ml in PBS) was added into each well and incubated for 1 hour at 37° C. The resultant formazan product was dissolved in 100 μl of DMSO/well and cell viability was determined by measuring the optical density at 570 nm (OD570) using a microplate reader.

[2] = system: inguinal fat pads of obese mice; assay: Quantitation of in vivo necrotic area (TTC staining) and histology of injected fat pads; conditions: for tissue lysis effect with higher concentration: necrotic area, FIGS. 12B and 12C
Protocol: Various concentrations of bile salts (DCA, CDCA, and CA) solutions in 100 μl volume of PBS were injected to the inguinal fat pads of obese mice. Mice were sacrificed at 1 day after the injection. Mouse inguinal fat pads were stained with 2% TTC (Sigma-Aldrich Chemical, St. Louis, Mo., USA) in PBS for 2 hour to identify the non-necrotic and necrotic areas and subsequently immersed in 10% formalin to enhance the contrast. […] The appearance and area of necrotic fat regions were captured and imaged by scanner. The necrotic area of fat pad treated DCA, CDCA, CA, and PBS was calculated by Image J.

[3] = system: Inguinal fat (subcutaneous fat) pads; assay: Ex vivo fat lysis assay (MTT); format: cell-based, diet induced obese mice; conditions: for ED50 (% w/v); EC50 values of bile salts required to lysis of fat tissues ex vivo: fat tissues of high fat diet mice, 10 minutes, MTT; for effect of increased pH of solution on fat lysis activities: pH 6.0 ˜pH 9.0, bile salt at EC50 in pH 7.4; for EC50 fold higher than DCA or CDCA, ex vivo: relative to DCA or CDCA; for fat lysis activities above the pH 9: solutions above the pH 9
Protocol: Inguinal fat (subcutaneous fat) pads were excised from diet induced obese mice and chopped to about the same size. 100 mg tissue samples were transferred to 48 well plates and incubated with 350 μl of various concentrations and pH of DCA, CDCA, CA, and phosphate buffer for 10 minutes. 70 μl of MTT solution (5 mg/ml in PBS) was added into each well and incubated for overnight at 37° C. The solution was removed and precipitated formazan product was dissolved in 300 μl of DMSO. Tissue viability was monitored by measuring the optical density at 570 nm (OD570) using a microplate reader.

rat paws [4] = conditions: in vivo
Protocol: (§1) Male SD rats (6 weeks old) were purchased from Koatech Co. (Seoul, Korea) and used after 1 week of acclimation. Rats (200˜230 g) were randomly selected and the volume of intact rats paw was measured in all groups using a digital caliper (Bluebird, Seoul, Korea). […] To induce the edema, rats received 100 μl of various bile salts and PBS into the plantar region of the hind foot of rats. Measurements of the paw volume were performed by a caliper immediately before the bile salts injection and 4 hours after injection.

[5] = Stability of bile salts in aqueous solution; conditions: for Solution stability of bile salt: 1% in 10 mM phosphate buffer; for pH stability: summary, Table 4; for pH in which aqueous solution remained stable: 1% (w/v), 10 mM phosphate buffer, 25° C.
Protocol: 0.01 g of bile salts (UDCA, DCA, CDCA and CA) were dissolved in 1 ml of phosphate buffer and placed at room temperature for 10 days.

tails of female ICR mice = assay: In vivo monitoring of tissue specific effects of bile salts (tail injection); conditions: pH 7.4 solution; for skin layers of tails / fat layers of tails: 14 days post-injection; for fat layers of tails: compared to saline
mice skin = assay: In vivo monitoring of adverse events on the skin; conditions: for skin lesions on the injected area: subcutaneous, pH 7.4, 0.5-1.5%
Protocol: Injections were repeated 1 more times 3 days after first injection. […] The severity of skin lesion was assessed using the following criteria. The total skin severity score was defined as the sum of the individual scores for each of the following character and length of lesion. Length of lesion is determined by measuring the longest diameter of the largest lesion identified. Measured length should involve the lesion only and not cross over clinically normal skin. The length of lesion involvement within each injected site was scored from 0 to 3, where 0=no involvement; 1=<0.2 cm, 2=0.2˜0.5 cm, 3=>0.5 cm of the length of site affected. The character of lesion was scored from 0 to 3, where 0=no lesion present, 1=excoriation only one or one, small punctate crust (<2 mm), 2=multiple, small punctate crusts or coalescing crust (>2 mm), 3=erosion or ulceration.

[6] = system: inguinal fat pad of obese mouse; assay: In vivo monitoring of bile salts induced fat loss; conditions: 1% solutions, 5 times during 2 weeks
rat paws [7] = assay: Bile salt-induced paw edema; conditions: 4 hours after injection; for severity of edema (paw thickness): concentrations and pHs showing similar tissue lysis effects
Protocol: as §1

C[C@H](CCC(=O)O)[C@H]1CC[C@H]2[C@@H]3C[C@H](O)[C@@H]4C[C@H](O)CC[C@]4(C)[C@H]3CC[C@]12C [HDCA, hyodeoxycholate]
Inflammation of injection site [1]: +++ | histological changes in fat pads (H & E) [1]: Infiltration of polymorphonuclear (PMN) cells into the fat pad tissue was observed | inflammation after injection to subcutaneous fat [1]: severe inflammation | EC50 (concentration that kills 50% of the cells) (3T3-L1 adipocytes): 0.42% | ED50 (% w/v); EC50 values of bile salts required to lysis of adipose cells in vitro (3T3-L1 adipocytes): 0.249 % w/v | cell killing effect compared to CA (3T3-L1 adipocytes; similar concentration (0˜1%)): slightly higher cell killing effect compared to CA | tissue lysis effect with higher concentration [2]: did not increased proportionally | EC50 concentrations, ex vivo condition [3]: 0.0250% | ED50 (% w/v); EC50 values of bile salts required to lysis of fat tissues ex vivo [3]: 0.0250 % w/v | effect of increased pH of solution on fat lysis activities [3]: greatly diminishes the fat lysis activities | EC50 fold higher than DCA or CDCA, ex vivo [3]: 1.4 fold | Adverse event: edema (rat paws [4]): ++ | severity of edema (paw thickness) (rat paws [4]): slightly lower symptom | Solution stability of bile salt ([5]; pH 6.5, 25° C.): Gelation | Solution stability of bile salt ([5]; pH 6.7, 25° C.): Gelation | Solution stability of bile salt ([5]; pH 7.0, 25° C.): Gelation | Solution stability of bile salt ([5]; pH 7.2, 25° C.): Gelation | Solution stability of bile salt ([5]; pH 7.4, 25° C.): Stable | Solution stability of bile salt ([5]; pH 7.6, 25° C.): Stable | Solution stability of bile salt ([5]; pH 7.8, 25° C.): Stable | Solution stability of bile salt ([5]; pH 8.0, 25° C.): Stable | Solution stability of bile salt ([5]; pH 8.3, 25° C.): Stable | pH stability [5]: <7.4

deoxycholate [DCA]
EC50 (concentration that kills 50% of the cells) (3T3-L1 adipocytes): 0.051% | ED50 (% w/v); EC50 values of bile salts required to lysis of adipose cells in vitro (3T3-L1 adipocytes): 0.0509 % w/v | viability of adipocyte cells (3T3-L1 adipocytes; low concentration (below 0.1%)): reduced the viability of adipocyte cells | skin layers of tails (tails of female ICR mice): not severely damaged | fat layers of tails (tails of female ICR mice): disrupted | damages of muscles in tails (tails of female ICR mice; same concentration of DCA and CA): prominent | tissue lysis activity at pH 8.3 compared with pH 7.4 ([2]; necrotic area after injection): lower than the activity of DCA preparation in condition of pH 7.4 | skin lesions (mice skin; higher concentrations): Large lesions, erosions and ulcers | skin lesions (mice skin; lowest dose (0.5%)): small punctate lesions | skin lesions on the injected area (mice skin): severe skin lesions | EC50 concentrations, ex vivo condition [3]: 0.0179% | ED50 (% w/v); EC50 values of bile salts required to lysis of fat tissues ex vivo [3]: 0.0179 % w/v | effect of increased pH of solution on fat lysis activities [3]: do not show greatly decreased fat lysis activity | histology of injected area (H & E) [6]: Fibrotic areas | lesions in the administered area of fat tissues [6]: yellowish lesions | severity of edema (paw thickness) (rat paws [7]): most severe edema phenotype | pH in which aqueous solution remained stable [5]: lower than 8.3 | Solution stability of bile salt ([5]; pH 6.5, 25° C.): Gelation | Solution stability of bile salt ([5]; pH 6.7, 25° C.): Gelation | Solution stability of bile salt ([5]; pH 7.0, 25° C.): Gelation | Solution stability of bile salt ([5]; pH 7.2, 25° C.): Gelation | Solution stability of bile salt ([5]; pH 7.4, 25° C.): Gelation | Solution stability of bile salt ([5]; pH 7.6, 25° C.): Gelation | Solution stability of bile salt ([5]; pH 7.8, 25° C.): Gelation | Solution stability of bile salt ([5]; pH 8.0, 25° C.): Gelation | Solution stability of bile salt ([5]; pH 8.3, 25° C.): Stable | pH stability [5]: <8.3

C[C@H](CCC(=O)O)[C@H]1CC[C@H]2[C@@H]3[C@@H](O)C[C@@H]4C[C@H](O)CC[C@]4(C)[C@H]3CC[C@]12C [UDCA, ursodeoxycholate]
EC50 (concentration that kills 50% of the cells) (3T3-L1 adipocytes): 0.25% | ED50 (% w/v); EC50 values of bile salts required to lysis of adipose cells in vitro (3T3-L1 adipocytes): 0.328 % w/v | histological changes in fat pads (H & E) ([2]; 1.5% solution): Infiltration of polymorphonuclear (PMN) cells into the fat pad tissue was observed | tissue lysis effect with higher concentration [2]: did not increased proportionally | inflammation after injection to subcutaneous fat ([2]; one time injection): severe inflammation | severity of edema (paw thickness) (rat paws [7]): slightly lower symptom | pH in which aqueous solution remained stable [5]: < 7.8 | Solution stability of bile salt ([5]; pH 6.5, 25° C.): Precipitation | Solution stability of bile salt ([5]; pH 6.7, 25° C.): Precipitation | Solution stability of bile salt ([5]; pH 7.0, 25° C.): Precipitation | Solution stability of bile salt ([5]; pH 7.2, 25° C.): Precipitation | Solution stability of bile salt ([5]; pH 7.4, 25° C.): Precipitation | Solution stability of bile salt ([5]; pH 7.6, 25° C.): Precipitation | Solution stability of bile salt ([5]; pH 7.8, 25° C.): Stable | Solution stability of bile salt ([5]; pH 8.0, 25° C.): Stable | Solution stability of bile salt ([5]; pH 8.3, 25° C.): Stable | pH stability [5]: <7.8

C[C@H](CCC(=O)NCCS(=O)(=O)O)[C@H]1CC[C@H]2[C@@H]3[C@@H](O)C[C@@H]4C[C@H](O)CC[C@]4(C)[C@H]3CC[C@]12C [TUDCA, taurourosodeoxycholate]
viability of adipocyte cells (3T3-L1 adipocytes; up to 2% concentration): did not reduce the viability of adipocyte cells

C[C@H](CCC(=O)O)[C@H]1CC[C@H]2[C@@H]3[C@H](O)C[C@@H]4C[C@H](O)CC[C@]4(C)[C@H]3CC[C@]12C [CDCA, chenodeoxycholate]
EC50 (concentration that kills 50% of the cells) (3T3-L1 adipocytes): 0.060% | ED50 (% w/v); EC50 values of bile salts required to lysis of adipose cells in vitro (3T3-L1 adipocytes): 0.0597 % w/v | viability of adipocyte cells (3T3-L1 adipocytes; low concentration (below 0.1%)): reduced the viability of adipocyte cells | concentration enough to show similar tissue lysis effect with 1% DCA (pH 8.3) ([2]; CA at pH 7.0, CDCA at pH 7.4): 0.6% | concentration showing similar tissue lysis activity with the injection of 1% DCA ([2]; same pH (pH 7.4)): 1% | EC50 concentrations, ex vivo condition [3]: 0.0180% | ED50 (% w/v); EC50 values of bile salts required to lysis of fat tissues ex vivo [3]: 0.018 % w/v | effect of increased pH of solution on fat lysis activities [3]: greatly diminishes the fat lysis activities | fat lysis activities above the pH 9 [3]: mostly lost their fat lysis activities | histology of injected area (H & E) [6]: Fibrotic areas | lesions in the administered area of fat tissues [6]: yellowish lesions | severity of edema (paw thickness) (rat paws [7]): slightly lower symptom | Solution stability of bile salt ([5]; pH 6.5, 25° C.): Gelaton | Solution stability of bile salt ([5]; pH 6.7, 25° C.): Gelation | Solution stability of bile salt ([5]; pH 7.0, 25° C.): Gelation | Solution stability of bile salt ([5]; pH 7.2, 25° C.): Precipitation | Solution stability of bile salt ([5]; pH 7.4, 25° C.): Stable | Solution stability of bile salt ([5]; pH 7.6, 25° C.): Stable | Solution stability of bile salt ([5]; pH 7.8, 25° C.): Stable | Solution stability of bile salt ([5]; pH 8.0, 25° C.): Stable | Solution stability of bile salt ([5]; pH 8.3, 25° C.): Stable | pH stability [5]: <7.4

C[C@H](CCC(=O)O)[C@H]1CC[C@H]2[C@@H]3[C@H](O)C[C@@H]4C[C@H](O)CC[C@]4(C)[C@H]3C[C@H](O)[C@]12C [CA, cholate]
EC50 (concentration that kills 50% of the cells) (3T3-L1 adipocytes): 0.42% | ED50 (% w/v); EC50 values of bile salts required to lysis of adipose cells in vitro (3T3-L1 adipocytes): 0.42 % w/v | viability of adipocyte cells (3T3-L1 adipocytes; up to 2% concentration): showed cell killing | skin layers of tails (tails of female ICR mice): not severely damaged | fat layers of tails (tails of female ICR mice): disrupted | concentration enough to show similar necrotic effects with DCA and CDCA ([2]; mouse, in vivo): about two fold higher concentration | concentration enough to show similar tissue lysis effect with 1% DCA (pH 8.3) ([2]; mouse, in vivo): 1.5% | necrotic areas at the same concentration ([2]; mouse, in vivo): smaller than DCA or CDCA | concentration showing similar tissue lysis activity with the injection of 1% DCA ([2]; mouse, in vivo, pH 7.4): about 2% | skin lesions (mice skin; higher dose (1.5%)): Only small punctate lesions | skin damage score (mice skin; highest dose of CA (1.5%) compared to lowest dose of DCA (0.5%)): lower damage score | skin lesions (mice skin; lower doses): no detectable lesions | skin lesions on the injected area (mice skin): significantly less lesions | EC50 concentrations, ex vivo condition [3]: 0.0727% | ED50 (% w/v); EC50 values of bile salts required to lysis of fat tissues ex vivo [3]: 0.0727 % w/v | effect of increased pH of solution on fat lysis activities [3]: greatly diminishes the fat lysis activities | EC50 fold higher than DCA or CDCA, ex vivo [3]: 4 fold | fat lysis activities above the pH 9 [3]: mostly lost their fat lysis activities | histology of injected area (H & E) [6]: Fibrotic areas | lesions in the administered area of fat tissues [6]: yellowish lesions | increment of foot thickness relative to the case of DCA (rat paws [7]): less than one-half | severity of edema (paw thickness) (rat paws [7]): very mild | pH in which aqueous solution remained stable [5]: < 7.0 | Solution stability of bile salt ([5]; pH 6.5, 25° C.): Precipitation | Solution stability of bile salt ([5]; pH 6.7, 25° C.): Precipitation | Solution stability of bile salt ([5]; pH 7.0, 25° C.): Stable | Solution stability of bile salt ([5]; pH 7.2, 25° C.): Stable | Solution stability of bile salt ([5]; pH 7.4, 25° C.): Stable | Solution stability of bile salt ([5]; pH 7.6, 25° C.): Stable | Solution stability of bile salt ([5]; pH 7.8, 25° C.): Stable | Solution stability of bile salt ([5]; pH 8.0, 25° C.): Stable | Solution stability of bile salt ([5]; pH 8.3, 25° C.): Stable | pH stability [5]: <7.0

From patent publication US10729700B2, “Methods and compositions of bile acids and salts for reduction of fat” (priority 2014, dated 2020)
